In assay [1] the test system is Trypanosoma cruzi, Tulahuen CL2 strain. The assay can be described thus: Antitrypanosomal activity assay, T. cruzi in MRC-5 cells. It is filed as cell-based. Conditions: T. cruzi Tulahuen CL2 in MRC-5 cells, 7 days. As to the method: (§1) The compound set was tested against the following parasites: intra-erythrocytic forms in human red blood cells of P. falciparum K1 strain (malaria), [16], [32], [33], [35], bloodstream forms of T. brucei Squib 427 strain (human African trypanosomiasis, HAT), [31], [32], [34], intracellular amastigotes of T. cruzi Tulahuen CL2, beta- galactosidase strain (Chagas' Disease), [32]–[35], intracellular amastigotes of L. infantum MHOM/MA(BE)/67 (leishmaniasis), [32]–[36], larval and/or adult worms of S. mansoni Puerto Rican strain (schistosomiasis), [31], [37], microfilariae of B. malayi (lymphatic filariasis), [30] and microfilariae of O. ochengi or O. lienalis (onchocerciasis), [30]. It should be noted that the human pathogen for onchocerciasis is Onchocerca volvulus, but due to lack of a suitable in vitro assay or animal models for this pathogen, O. ochengi and lienalis, which are both animal pathogens, are used in the primary and secondary assays, [30].
171 of the 744 actives passed the initial criterion of IC50<1 µg/ml for T. cruzi Tulahuen CL2, beta galactosidase strain maintained on MRC-5SV2 cells in MEM medium (MRC-5 cell/parasite inoculum: 4.10^3 cells/well+4.10^4 parasites/well), supplemented with […] L-glutamine, 16.5 mM NaHCO3 and 5% heat inactivated fetal calf serum. […] Of these, 109 were eliminated [structures #1–6] for poor selectivity versus mammalian cells (SI<50) and an additional 11 due to undesirable chemical attributes. The remaining 51 compounds were sorted into 10 series (45 compounds) and 6 singletons [structures # 21, 22]. Two of these series with excellent potency against T. cruzi, limited activity against other protozoa and SI values >50 (not shown), have been transferred to DNDi for further evaluation.

Assay [2] concerns Trypanosoma brucei brucei Squib-427 strain. The assay can be described thus: Antitrypanosomal activity assay, T. brucei (resazurin). Conditions: T. brucei Squib 427 bloodstream forms, 72 h. Type of assay: cell-based. As to the method: as §1
Assay [3] has as its system Onchocerca (lienalis or ochengi) microfilariae. The assay can be described thus: Anti-Onchocerca microfilariae motility assay. Type of assay: cell-based, Onchocerca lienalis or O. ochengi. As to the method: as §1
4240 compound s were screened against O. ochengi at the University of Buea in Cameroon, while a subset of […] compounds was successfully screened in UK by the Northwick Park Institute for Medical Research against O. lienalis, at a uniform molarity. […] After removing molecules that were toxic to mammalian cells (IC50<5 µg/ml), 292 molecules remained for further evaluation. […] From the latter sub-set, […] distinct chemical series and one singleton [structure # 35] were active against both microfilaria and adults. One series [structures # 2, 3] was deemed not interesting due to lack of selectivity against mammalian cells. The remaining series is being transferred to ANDI for further progression as part of a new collaboration.

The test system of assay [4] is Brugia malayi microfilariae. The assay can be described thus: Anti-Brugia malayi microfilariae motility assay. Conditions: B. malayi microfilariae; 12.5 µM. It is filed as cell-based. Here is the method: as §1
As result of logistics issues attributed to lost shipments of some compounds, only 6160 molecules of the 10,000 compound set were tested, at a uniform molarity, against B. malayi, including 6063 against microfilariae and 756 against adult worms (these sets overlap). […] Greatest priority was given to compounds with activity against adult worms, as no macrofilaricide is available for use in control campaigns and the activity of ivermectin as a microfilaricidal agent is unlikely to be bettered in a new series. Of the test set, 53 compounds met the activity criterion for microfilariae (100% motility reduction) and an additional 58 inhibited adult worm motility ≥75% at 10 µM. These were titrated to determine an IC50 value to support prioritization. Following cytotoxicity triage [structures # 1, 4, 6], eight compounds met the activity criterion for adult worms (i.e., 100% inhibition of adult worm motility), four of which were also active against microfilariae [structures # 14, 29, 30, 32]. […] Of these, the most interesting was TDR76699 [structure # 29]; this compound has very good activity against adult worms (IC50 = 0.1 µg/ml) and is also active against microfilariae (IC50 = 0.7 µg/ml). None of the other compounds tested against adult parasites had IC50 values ≤0.5 µg/ml, a threshold which would reduce concerns about specificity. However, a few series [structures # 31, 33, 34], appear interesting for future medicinal chemistry projects.

Assay [5] has as its system MRC-5 cell line (diploid human embryonic lung fibroblast). Put plainly: Cytotoxicity on MRC-5 cells. Type of assay: cell-based. An excerpt: [table] An important part of the screen is the evaluation of all compounds for cytotoxicity using the diploid human embryonic lung fibroblast MRC-5 cell line (Figure 2). Further evaluation of cytotoxicity also takes advantage of the assays for intracellular protozoan parasites, as in the case of L. infantum and T. cruzi, which include murine peritoneal macrophage host cells and MRC-5SV2 human lung fibroblast cells, respectively, in the culture system.

For assay [6], the system named is Schistosoma mansoni adult worms. Put plainly: Anti-Schistosoma activity assay (adult worm motility). It is filed as cell-based. Conditions: S. mansoni adult worms; 12.5 µM (method: 10 µg/ml or 12.5 µM). Here is the method:
as §1
A subset of 9478 of the 10,000 compound collection was tested against the Puerto Rican strain of S. mansoni. 6144 of these were tested in a primary larval assay followed by the ex-vivo adult secondary screen. The remainder was screened only in the adult assay. […] The 65 compounds were sorted by chemical attractiveness, potency against adult schistosomes in culture, selectivity against other parasites, and toxicity to mammalian cells in culture. Based on this analysis, 5 series encompassing 13 compounds were chosen for advancement through the African Network for Drug and Diagnostic Innovation (ANDI) and other PDPs. Representative structures [structures # 13, 27, 28] are shown (Table S1). These compounds are unburdened by obvious toxic moieties, have acceptable compliance with the Lipinski rules, are selectively active against schistosomes and are not overtly toxic to mammalian cells. It has unfortunately not been possible to titrate all of these hits in culture; of about 50% for which such data are available, none has an IC50<2 µg/ml (which is the initial potency criteria).

The test system of assay [7] is Plasmodium falciparum K1 strain. The assay can be described thus: Anti-Plasmodium activity assay (Malstat). It is filed as cell-based. Conditions: P. falciparum K1, 72 h. Here is the method:
as §1

Bounds are passed on as bounds.

`O=S(=O)(c1cccc(F)c1)N1CCN(c2ccc(Nc3cccnc3)nn2)CC1` [TDR86129]: the “CHA IC50” value in assay [1] is greater than 12.43 µg/mL. Also, the “HAT IC50” value in assay [2] was greater than 12.43 µg/mL. Also, the “ONC/MF % Motility Reduction at 12.5µM” value in assay [3] was determined as 0%. The “LF/MF % Motility Reduction at 12.5µM” value in assay [4] is 0%. Also, the “CYT IC50” value in assay [5] was determined as 0.94 µg/mL. The “SCH % Motility Reduction at 12.5µM” value in assay [6] is 0%. For the same molecule, in assay [7], the “MAL IC50” value amounted to 5.44 µg/mL.

With `C=CCN(CC=C)S(=O)(=O)c1ccc(C(=O)Nc2nc3ccc(C(C)C)cc3s2)cc1` [TDR78794], the “CHA IC50” value in assay [1] is 4.48 µg/mL. Moreover, the “HAT IC50” value in assay [2] is greater than 10.99 µg/mL. Besides, in assay [3], the “ONC/MF % Motility Reduction at 12.5µM” value is recorded as 0%. In addition, the “CYT IC50” value in assay [5] is greater than 10.99 µg/mL. Moreover, the “SCH % Motility Reduction at 12.5µM” value in assay [6] stood at 100%. Also, the “MAL IC50” value in assay [7] was greater than 10.99 µg/mL.

Consider `O=C(Cc1csc(NC(=O)C2CCC(=O)N2)n1)NCc1ccccn1` (stereo not shown) [TDR84826], for which, in assay [1], the “CHA IC50” value was greater than 10.78 µg/mL. Further, in assay [2], the “HAT IC50” value was greater than 10.78 µg/mL. Besides, the “ONC/MF % Motility Reduction at 12.5µM” value in assay [3] is given as 50%. The “LF/MF % Motility Reduction at 12.5µM” value in assay [4] is 20%. In addition, the “CYT IC50” value in assay [5] is greater than 10.78 µg/mL. In assay [6], the “SCH % Motility Reduction at 12.5µM” value is recorded as 100%. In assay [7], the “MAL IC50” value was greater than 10.78 µg/mL.

Take `O=C(CSc1ccc2nnc(-c3ccccn3)n2n1)NCC1CCCO1` (stereo not shown) [TDR78834]: the “CHA IC50” value in assay [1] turned out to be 5.2 µg/mL. Besides, in assay [2], the “HAT IC50” value stood at 3.3 µg/mL. The “ONC/MF % Motility Reduction at 12.5µM” value in assay [3] amounted to 0%. Besides, the “CYT IC50” value in assay [5] is greater than 12.1 µg/mL. For the same molecule, the “SCH % Motility Reduction at 12.5µM” value in assay [6] is recorded as 0%. In addition, the “MAL IC50” value in assay [7] was found to be 3.15 µg/mL.

With `O=C(CN1CCC(C(=O)Nc2ccc(Oc3ccccc3)cc2)CC1)Nc1ccc(F)cc1` [TDR80731], the “CHA IC50” value in assay [1] was greater than 13.43 µg/mL. The “HAT IC50” value in assay [2] is greater than 13.43 µg/mL. The “ONC/MF % Motility Reduction at 12.5µM” value in assay [3] was determined as 0%. Besides, in assay [5], the “CYT IC50” value was greater than 13.43 µg/mL. For the same molecule, the “SCH % Motility Reduction at 12.5µM” value in assay [6] worked out at 0%. Further, the “MAL IC50” value in assay [7] is greater than 13.43 µg/mL.

Consider `Cc1ccc(N2CCn3c2nnc(C(=O)NCCC2=CCCCC2)c3=O)cc1` [TDR81281], for which the “CHA IC50” value in assay [1] is greater than 11.38 µg/mL. The “HAT IC50” value in assay [2] was greater than 11.38 µg/mL. Besides, the “ONC/MF % Motility Reduction at 12.5µM” value in assay [3] was determined as 0%. Besides, the “CYT IC50” value in assay [5] is greater than 11.38 µg/mL. Besides, the “SCH % Motility Reduction at 12.5µM” value in assay [6] is on record as 0%. Also, in assay [7], the “MAL IC50” value was determined as 0.15 µg/mL.

Turning to `COc1ccc(N2CCCS2(=O)=O)cc1NC(=O)c1cc(Cl)ccc1OC` [TDR79456], the “CHA IC50” value in assay [1] amounted to 5.0 µg/mL. In addition, the “HAT IC50” value in assay [2] was determined as 4.3 µg/mL. In addition, in assay [3], the “ONC/MF % Motility Reduction at 12.5µM” value is 13.3%. In addition, the “CYT IC50” value in assay [5] is greater than 12.3 µg/mL. The “SCH % Motility Reduction at 12.5µM” value in assay [6] is reported as 4%. Further, the “MAL IC50” value in assay [7] is greater than 12.3 µg/mL.

With `Cc1ccc(C(=O)Nc2nnc(Cc3cccs3)o2)cc1C` [TDR85275], the “CHA IC50” value in assay [1] was found to be 3.01 µg/mL. Further, the “HAT IC50” value in assay [2] came out at 0.38 µg/mL. In addition, the “ONC/MF % Motility Reduction at 12.5µM” value in assay [3] turned out to be 0%. Also, the “LF/MF % Motility Reduction at 12.5µM” value in assay [4] is 50%. Besides, the “SCH % Motility Reduction at 12.5µM” value in assay [6] came to 25%.

On to `O=S(=O)(NCC(c1cccnc1)N1CCN(Cc2ccccc2)CC1)c1ccc(Cl)cc1` (stereo not shown) [TDR78023], for which, in assay [1], the “CHA IC50” value is 0.63 µg/mL. The “HAT IC50” value in assay [2] is greater than 14.13 µg/mL. Further, in assay [3], the “ONC/MF % Motility Reduction at 12.5µM” value is 0%. Also, in assay [5], the “CYT IC50” value is greater than 14.13 µg/mL. In assay [6], the “SCH % Motility Reduction at 12.5µM” value was 0%. Moreover, in assay [7], the “MAL IC50” value was 2.18 µg/mL.

For the molecule `O=C(Nc1nc(-c2ccncc2)cs1)C1CCCN(S(=O)(=O)c2ccc(Cl)s2)C1` (stereo not shown) [TDR80165], in assay [1], the “CHA IC50” value amounted to 0.24 µg/mL. The “HAT IC50” value in assay [2] stood at 4.5 µg/mL. Besides, the “ONC/MF % Motility Reduction at 12.5µM” value in assay [3] is listed as 50%. Moreover, the “CYT IC50” value in assay [5] was greater than 14.07 µg/mL. Moreover, the “SCH % Motility Reduction at 12.5µM” value in assay [6] came to 0%. Besides, the “MAL IC50” value in assay [7] was 6.68 µg/mL.

The values are drawn from PMC3243694, “Integrated Dataset of Screening Hits against Multiple Neglected Disease Pathogens” (PLoS Neglected Tropical Diseases, 2011).
